Measured values published in patent US20100015174A1, “METHOD TO CONTROL DENGUE VIRUSES IN HUMANS BY PICOLINIC ACID AND DERIVATIVES THEREOF” (priority 2008, published 2010).
≈ marks a conversion by molar mass, not a printed value. Where “and” joins values, the source holds several entries; their conditions need not be identical. Equal values may be shown once. Read-outs that look alike come from different tables or passages of the source.

What was measured:
HCV replicon = HCV replicon (qRTCPCR/iCycler) in Ava.5 cell line; assay type: cell-based, Human Hepatitis C Virus; conditions: Hepatitis C virus, Ava5, 24 h, read-out: inhibition of HCV replicon
Experimental: (§1) Here we determine the effects of Picolinic acid and Fusaric Acid on HCV replicon cell lines. The HCV replicons (qRTCPCR/iCycler) were contained in the Ava.5 cell line tested. Normalization by OD and serial dilutions were done in the untreated cell line. The experimental design was as follows: cells were grown in 12 well cell culture plates; the compounds interaction was done for 24 hours; at extraction, cell confluence was 75%; and RNA was extracted using Qiagen Rneasy extraction kit.

Sindbis replicon = Sindbis replicon (qRTCPCR/iCycler) in Huh7B/Sindbis cells; assay type: cell-based, Sindbis virus; conditions: for inhibition of Sindbis replicon: at all concentrations tested
Experimental: as §1, with “Sindbis” for “HCV”, “in Huh7B/Sindbis cells.” for “cell lines.”, “replicons” for “replicons (qRTCPCR/iCycler)”, “studied by qRTCPCR/iCycler.” for “contained in the Ava.5 cell line tested.”

[1] = system: human hepatitis B virus (HBV); experiment: HBV DNA by real-time PCR after 9-day treatment of HepG2.2.15 cells; assay type: cell-based; conditions: 9 days; for EC50: 216 h, HepG2.2.15 cells, read-out: overall EC50 against HBV; for inhibition at 60 µg/mL / inhibition at 250 µg/mL: HepG2.2.15, 216 h; for inhibition at 60 µg/mL: 60 ug/mL; for inhibition at 250 µg/mL: 250 ug/mL
Experimental: (§2) Here we evaluate the antiviral efficacy of picolinic acid and fusaric acid against human hepatitis B virus (HBV). HepG2.2.15 cells, a cell line that was stably transfected with HBV genome was used to study the antiviral effects of PA and FA against HBV. HepG2.2.15 cells were cultured under standard conditions. HepG2.2.15 cells were seeded in a 96-well plate at 2×10^4 cells/well and grown for 24 hours. The medium was replaced with 100 uL of medium containing PA at increasing concentrations (0, 10, 100, 250, and 500 ug/mL). The concentrations of FU used were 0, 1, 10, 30, 60, and 100 ug/mL. The cells were incubated at 37° C. for 9 days. The control medium and the medium containing the antivirals were changed every 24 hours. At day 9, the culture medium containing the released HBV virions was collected, the cells washed with PBS, and lysed with lysis buffer. All samples were stored at −70° C. until analyzed.
HBV DNA from drug-treated […] cell culture medium and cell lysates was extracted using QIAamp DNA mini kit, according to manufacturer's specifications.
PCR reaction was performed in 20 uL, comprising the following compounds: dH2O; 25 mM MgCl2; 10 uM sense primer; 10 uM antisense primer; LightCycler Probe 1 (fluorescent-labeled, 5 uM); LightCycler Probe 2 (LC Red 640-labeled, 10 uM); LC FastStart DNA Master Hyb Probes; and Uracil DNA glycosylase (1 uL).
PCR mix was aliquoted and 5 uL DNA template was then added to the PCR mix. A range of HBV plasmid DNA (1×10^8, 1×10^7, 1×10^6, [ . . . ], 1×10^2, 25 copies) were used as standards for quantitative analysis.
To study the antiviral activities of PA and FA against HBV, HepG2.2.15 cells were incubated with increasing concentrations of test compounds for 9 days with medium change daily. At day 9, the medium containing secreted HBV virions was collected and used for extraction of extracellular virus DNA. The cells were lysed by 0.5% SDS and used for extraction of intracellular virus DNA. DNA was extracted using Qiagen column and then quantitatively detected by real-time PCR assay.

VZV Ellen strain = experiment: VZV virus yield reduction assay in HEL-299 cells (real-time PCR); assay type: cell-based, Varicella-Zoster Virus; conditions: for Total VZV DNA copies (mean) / Total VZV DNA, % of control: 3 days
Ava.5 cell line = experiment: Cytotoxicity by OD in HCV replicon cells; assay type: cell-based
Experimental: as §1

Huh7B/Sindbis cells = experiment: Cytotoxicity by OD in Sindbis replicon cells; assay type: cell-based; conditions: concentrations tested
Experimental: as §1, with “Sindbis” for “HCV”, “in Huh7B/Sindbis cells.” for “cell lines.”, “replicons” for “replicons (qRTCPCR/iCycler)”, “studied by qRTCPCR/iCycler.” for “contained in the Ava.5 cell line tested.”

HepG2.2.15 cells = experiment: Toxicity to HepG2.2.15 cells (9-day treatment); assay type: cell-based
Experimental: as §2

HEL cells = experiment: Toxicity to HEL cells
[2] = read-out: inhibition of intracellular HBV DNA
[3] = read-out: inhibition of released HBV DNA

SMILES: CCCCc1ccc(C(=O)O)nc1 [FA, fusaric acid]
- inhibition at 100 µg/mL (HCV replicon): ~60%
- Sindbis replicon % CTRL (Sindbis replicon; FA 5, 24 hours): 14.0 % CTRL
- Sindbis replicon AVE (Sindbis replicon; FA 5, 24 hours): 22.7
- Sindbis replicon, single reading (Sindbis replicon; FA 5, 24 hours): 22.7 and 23.3 and 23.1 and 21.7
- Sindbis replicon % CTRL (Sindbis replicon; FA 25, 24 hours): 11.6 % CTRL
- Sindbis replicon AVE (Sindbis replicon; FA 25, 24 hours): 22.9
- Sindbis replicon, single reading (Sindbis replicon; FA 25, 24 hours): 23.0 and 22.7 and 22.4 and 23.5
- Sindbis replicon % CTRL (Sindbis replicon; FA 50, 24 hours): 9.3 % CTRL
- Sindbis replicon AVE (Sindbis replicon; FA 50, 24 hours): 23.3
- Sindbis replicon, single reading (Sindbis replicon; FA 50, 24 hours): 22.8 and 23.4 and 22.7 and 24.2
- Sindbis replicon % CTRL (Sindbis replicon; FA 100, 24 hours): 8.8 % CTRL
- Sindbis replicon AVE (Sindbis replicon; FA 100, 24 hours): 23.5
- Sindbis replicon, single reading (Sindbis replicon; FA 100, 24 hours): 22.2 and 23.8 and 24.0 and 23.9
- inhibition of Sindbis replicon (Sindbis replicon): > 85%
- EC50 [1]: > 60 µg/mL
- inhibition at 60 µg/mL [1, 2]: 28%
- inhibition at 60 µg/mL [1, 3]: 76.5%
- Total VZV DNA copies (mean) (VZV Ellen strain; FA 1 μg/ml): 753340 copies
- Total VZV DNA, % of control (VZV Ellen strain; FA 1 μg/ml): 77.7 % of control
- Total VZV DNA copies (mean) (VZV Ellen strain; FA 10 μg/ml): 685520 copies
- Total VZV DNA, % of control (VZV Ellen strain; FA 10 μg/ml): 70.7 % of control
- Total VZV DNA copies (mean) (VZV Ellen strain; FA 30 μg/ml): 103405 copies
- Total VZV DNA, % of control (VZV Ellen strain; FA 30 μg/ml): 10.7 % of control
- Total VZV DNA copies (mean) (VZV Ellen strain; FA 60 μg/ml): 66230 copies
- Total VZV DNA, % of control (VZV Ellen strain; FA 60 μg/ml): 6.8 % of control
- EC50 (VZV Ellen strain; Human alphaherpesvirus 3, HEL 299, read-out: EC50 against VZV replication, 50% reduction of total VZV DNA copies, HEL-299 cells): ~14 µg/mL (≈ 78.1 µM)
- EC90 (VZV Ellen strain; Human alphaherpesvirus 3, HEL 299, read-out: EC90 against VZV replication, total VZV DNA copies, HEL-299 cells): ~41 µg/mL (≈ 229 µM)
- overt cytotoxicity by OD (Ava.5 cell line; 100 ug/mL): no overt cytotoxicity
- overt cytotoxicity by OD (Huh7B/Sindbis cells): No overt cytotoxicity
- toxicity to HepG2.2.15 cells (HepG2.2.15 cells; 100 ug/ml): 100 ug/ml was toxic to HepG2.2.15 cells.
- toxicity to HEL cells (HEL cells; 60 ug/mL): no significant toxicity

SMILES: O=C(O)c1ccccn1 [PA, picolinic acid]
- inhibition at 250 µg/mL (HCV replicon): ~60%
- Sindbis replicon % CTRL (Sindbis replicon; PA 100, 24 hours): 6.5 % CTRL
- Sindbis replicon AVE (Sindbis replicon; PA 100, 24 hours): 23.7
- Sindbis replicon, single reading (Sindbis replicon; PA 100, 24 hours): 24.1 and 23.7 and 23.5 and 23.6
- Sindbis replicon % CTRL (Sindbis replicon; PA 300, 24 hours): 11.3 % CTRL
- Sindbis replicon AVE (Sindbis replicon; PA 300, 24 hours): 23.3
- Sindbis replicon, single reading (Sindbis replicon; PA 300, 24 hours): 24.3 and 23.7 and 21.6
- Sindbis replicon % CTRL (Sindbis replicon; PA 400, 24 hours): 6.7 % CTRL
- Sindbis replicon AVE (Sindbis replicon; PA 400, 24 hours): 23.7
- Sindbis replicon, single reading (Sindbis replicon; PA 400, 24 hours): 24.0 and 23.5 and 23.2 and 24.3
- inhibition of Sindbis replicon (Sindbis replicon): greater than 90%
- Sindbis replicon % CTRL (Sindbis replicon; column PA 200, 24 hours): 6.5 % CTRL
- Sindbis replicon AVE (Sindbis replicon; column PA 200, 24 hours): 23.8
- Sindbis replicon, single reading (Sindbis replicon; column PA 200, 24 hours): 24.1 and 22.9 and 24.2
- EC50 [1]: ~139 µg/mL (≈ 1130 µM)
- inhibition at 250 µg/mL [1, 2]: 79.4%
- inhibition at 250 µg/mL [1, 3]: 72.3%
- EC50 (VZV Ellen strain; Human alphaherpesvirus 3, 50% reduction of total VZV DNA copies, HEL-299 cells, read-out: EC50 against VZV replication): ~89 µg/mL (≈ 723 µM)
- EC90 (VZV Ellen strain; Human alphaherpesvirus 3, total VZV DNA copies, HEL-299 cells, read-out: EC90 against VZV replication): ~505 µg/mL (≈ 4100 µM)
- overt cytotoxicity by OD (Ava.5 cell line; 250 ug/mL): no overt cytotoxicity
- overt cytotoxicity by OD (Huh7B/Sindbis cells): no overt cytotoxicity
- toxicity to HepG2.2.15 cells (HepG2.2.15 cells; 500 ug/ml): 500 ug/ml was slightly toxic to HepG2.2.15 cells.
- toxicity to HEL cells (HEL cells; 500 ug/mL): no significant toxicity
